Assay results published in patent US8889666B2, “Quinolyl pyrrolo pyrimidyl condensed-ring compound and salt thereof” (Taiho Pharmaceutical Co., Ltd., priority 2012, dated 2014).

How the values were obtained:
EGFR (d746-750/T790M) = target: T1, EGFR (d746-750/T790M) (Homo sapiens, UniProt P00533, DEL746-750/T790M); test: EGFR (d746-750/T790M) kinase inhibitory activity (in vitro); format: biochemical; details: recombinant human protein, ATP 1.5 μM
T1 construct: purchased Carna Biosciences, Inc
Protocol: (§1) The measurement method was as follows. The compounds I-1, I-2, I-3, I-4, I-5, I-6, I-7, I-8, and I-9 were each dissolved in dimethylsulfoxide (DMSO), and then each serially diluted with DMSO. Next, the EGFR (T790M/L858R) protein, substrate peptide (final concentration: 250 nM), magnesium chloride (final concentration: 10 mM), manganese chloride (final concentration: 10 mM), ATP (final concentration: 1 μM), and the diluted DMSO solution of each compound (final concentration of DMSO: 2.5%) were added to a kinase reaction buffer (Carna Biosciences, Inc.), and the mixture was incubated at 25° C. for 120 minutes for kinase reaction. EDTA was added thereto to a final concentration of 24 mM to thereby terminate the reaction. Then, a detection solution containing europium (Eu)-labeled anti-phosphorylated tyrosine antibody PT66 (PerkinElmer) and SureLight APC-SA (PerkinElmer) was added, and the resulting mixture was allowed to stand at room temperature for 2 hours or more. Finally, the intensity of fluorescence under the excitation light with a wavelength of 337 nm was measured by a PHERAstar FS (BMG LABTECH) at two wavelengths of 620 nm and 665 nm. The level of phosphorylation of each test sample was calculated from the fluorescence intensity ratio of the two wavelengths in DMSO control and in the test sample, and the compound concentration at which phosphorylation was inhibited by 50% was determined as the IC50 value (nM) of each compound.
2) Measurement of EGFR (d746-750/T790M) Kinase Inhibitory Activity
The inhibitory activities of the compounds I-1, I-2, I-3, I-4, I-5, I-6, I-7, I-8, and I-9 for EGFR (d746-750/T790M) kinase were measured.
(§2) The materials were as follows. The EGFR (d746-750/T790M) was a purified recombinant human EGFR (d746-750/T790M) protein purchased from Carna Biosciences, Inc. The final concentration of ATP was 1.5 μM. As for other conditions, the same materials and methods as those used in the measurement of EGFR (T790M/L858R) kinase inhibitory activity were used to determine the IC50 value (nM) of each compound.

EGFR (L858R) = target: T2, EGFR (L858R) (Homo sapiens, UniProt P00533, L858R); test: EGFR (L858R) kinase inhibitory activity (in vitro); format: biochemical; details: recombinant human protein, ATP 4 μM
T2 construct: purchased Carna Biosciences, Inc
Protocol: as §1
3) Measurement of EGFR (L858R) Kinase Inhibitory Activity
The inhibitory activities of the compounds I-1, I-2, I-3, I-4, I-5, I-6, I-7, I-8, and I-9 for EGFR (L858R) kinase were measured.
as §2, with “(L858R)” for “(d746-750/T790M)”, “4” for “1.5”

EGFR (T790M/L858R) = target: T3, EGFR (T790M/L858R) (Homo sapiens, UniProt P00533, L858R/T790M); test: EGFR (T790M/L858R) kinase inhibitory activity (in vitro); format: biochemical; details: for IC50: recombinant human protein, ATP 1 μM, 120 minutes; for inhibitory activities for EGFR (L858R), EGFR (d746-750), EGFR (T790M/L858R) and EGFR (d746-750/T790M), in words: summary of Table 1, all four mutant kinases
T3 construct: purchased Carna Biosciences, Inc
Protocol: 1) Measurement of EGFR (T790M/L858R) Kinase Inhibitory Activity
The inhibitory activities of the compounds I-1, I-2, I-3, I-4, I-5, I-6, I-7, I-8, and I-9 for EGFR (T790M/L858R) kinase were measured.
The materials were as follows. The substrate peptide was a biotinylated peptide (biotin-EEPLYWSFPAKKK) synthesized by reference to the amino acid sequence of FL-Peptide 22 (a reagent for LabChip® Series; Caliper Life Sciences, Inc.). The EGFR (T790M/L858R) was a purified recombinant human EGFR (T790M/L858R) protein purchased from Carna Biosciences, Inc.
as §1

[1] = test system: lung adenocarcinoma cell line NCI-H1975 expressing EGFR (T790M/L858R); test: Growth inhibitory activity, EGFR (T790M/L858R)-expressing cell line; format: cell-based, human; details: for GI50: Homo sapiens, NCI-H1975, 72 h, three days culture, CellTiter-Glo; for growth-inhibitory activities for EGFR (d746-750)-expressing and EGFR (T790M/L858R)-expressing cells, in words: summary of Table 2, NCI-H1975 and HCC827
Protocol: (§3) 1) A lung adenocarcinoma cell line NCI-H1975 expressing EGFR (T790M/L858R), 2) a lung adenocarcinoma cell line HCC827 expressing EGFR (d746-750), and 3) a human epidermoid carcinoma cell line A431 expressing EGFR (WT) were each suspended in the medium recommended by ATCC. The cell suspension was seeded in each well of a 384-well flat microplate or 96-well flat plate, and cultured in an incubator containing 5% carbon dioxide gas at 37° C. for one day. The compound of the present invention and the reference compound were dissolved in DMSO, and then the DMSO solution of each test compound was diluted with DMSO to a concentration 200 times higher than the final concentration. The diluted DMSO solution of the test compound was diluted with the medium used to suspend each cell line, and the diluted solution was added to each well of the cell culture plate so that the final concentration of DMSO was 0.5%. Then, the cells were cultured in an incubator containing 5% carbon dioxide gas at 37° C. for three days. The number of cells was measured at the time of initiation and termination of the culture by using a CellTiter-Glo Assay (produced by Promega) according to a protocol recommended by Promega. The cell growth inhibition rate was calculated by the following formula, and the concentration of the test compound at which the cell growth was inhibited by 50% (GI50 (nM)) was determined. Growth inhibition rate (%)=(C−T)/(C−C0)×100
(§4) T: Luminescence intensity of well to which test compound was added
(§5) C: Luminescence intensity of well to which test compound was not added
(§6) C0: Luminescence intensity of well measured before addition of test compound

EGFR (d746-750) = target: T4, EGFR (d746-750) (Homo sapiens, UniProt P00533, DEL746-750); test: EGFR (d746-750) kinase inhibitory activity (in vitro); format: biochemical; details: recombinant human protein, ATP 5 μM, 90 minutes
T4 construct: purchased Carna Biosciences, Inc
Protocol: as §1
4) Measurement of EGFR (d746-750) Kinase Inhibitory Activity
The inhibitory activities of the compounds I-1, I-2, I-3, I-4, I-5, I-6, I-7, I-8, and I-9 for EGFR (d746-750) kinase activity were measured.
as §2, with “(d746-750)” for “(d746-750/T790M)”, “5” for “1.5”, “μM. The incubation time for the kinase reaction was 90 minutes.” for “μM.”

[2] = test system: lung adenocarcinoma cell line HCC827 expressing EGFR (d746-750); test: Growth inhibitory activity, EGFR (d746-750)-expressing cell line; format: cell-based; details: Homo sapiens, HCC827, 72 h; three days culture, CellTiter-Glo
Protocol: as §3, with “Then, the cells were cultured in an incubator containing 5% carbon dioxide gas at 37° C. for three days.” left out, “The cell growth inhibition rate was calculated by the following formula, and the concentration of the test compound at which the cell growth was inhibited by 50% (GI50 (nM)) was determined. Growth inhibition rate (%)=(C−T)/(C−C0)×100” left out
as §4, §5, §6

[3] = test system: human epidermoid carcinoma cell line A431 expressing EGFR (WT); test: Growth inhibitory activity, EGFR (WT)-expressing cell line; format: cell-based; details: for GI50: Homo sapiens, A-431, 72 h, three days culture, CellTiter-Glo; for growth-inhibitory activities for EGFR (WT)-expressing cells compared with cells expressing mutant EGFRs, in words: summary of Table 2
Protocol: as §3, §4, §5, §6

EGFR (WT) = target: T5, EGFR (WT) (Homo sapiens, UniProt P00533); test: EGFR (WT) kinase inhibitory activity (in vitro); format: biochemical; details: for IC50: cytoplasmic domain of human EGFR (WT), ATP 4.7 μM, substrate peptide 500 nM; for inhibitory activities for EGFR (WT) compared with the mutant EGFR proteins, in words: summary of Table 1
T5 construct: the cytoplasmic domain of human EGFR (WT); FLAG (N); made in house; host or cells: baculovirus expression system, insect Sf9 cells
Protocol: as §1
The inhibitory activities of the compounds I-1, I-2, I-3, I-4, I-5, I-6, I-7, I-8, and I-9 on EGFR (WT) kinase were measured.
The materials were as follows. As the EGFR (WT), the cytoplasmic domain of human EGFR (WT) in which a FLAG tag was fused to the N-terminus was expressed in a baculovirus expression system using insect Sf9 cells, and purified with anti-FLAG antibody agarose (Sigma-Aldrich). The final concentration of the substrate peptide was 500 nM, and the final concentration of ATP was 4.7 μM. As for other conditions, the same materials and methods as those used in the measurement of EGFR (T790M/L858R) kinase inhibitory activity were used to determine the IC50 value (nM) of each compound.

T5 sequence (P00533 669-1210 limits assumed): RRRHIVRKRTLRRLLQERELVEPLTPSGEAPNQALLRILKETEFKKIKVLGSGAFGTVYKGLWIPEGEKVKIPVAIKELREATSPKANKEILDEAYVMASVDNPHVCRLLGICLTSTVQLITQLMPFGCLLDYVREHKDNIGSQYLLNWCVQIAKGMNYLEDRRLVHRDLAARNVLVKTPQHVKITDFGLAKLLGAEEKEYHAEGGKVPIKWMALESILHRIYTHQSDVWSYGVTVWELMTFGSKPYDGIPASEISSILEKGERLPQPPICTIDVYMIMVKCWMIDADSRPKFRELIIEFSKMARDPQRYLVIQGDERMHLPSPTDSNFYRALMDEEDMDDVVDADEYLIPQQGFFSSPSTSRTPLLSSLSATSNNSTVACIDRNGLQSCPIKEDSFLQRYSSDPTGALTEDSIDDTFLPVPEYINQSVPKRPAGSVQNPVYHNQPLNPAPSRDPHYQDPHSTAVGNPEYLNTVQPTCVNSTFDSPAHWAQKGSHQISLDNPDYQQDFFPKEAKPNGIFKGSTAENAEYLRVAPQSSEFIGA
T3 sequence (P00533 25-1210 T790M/L858R): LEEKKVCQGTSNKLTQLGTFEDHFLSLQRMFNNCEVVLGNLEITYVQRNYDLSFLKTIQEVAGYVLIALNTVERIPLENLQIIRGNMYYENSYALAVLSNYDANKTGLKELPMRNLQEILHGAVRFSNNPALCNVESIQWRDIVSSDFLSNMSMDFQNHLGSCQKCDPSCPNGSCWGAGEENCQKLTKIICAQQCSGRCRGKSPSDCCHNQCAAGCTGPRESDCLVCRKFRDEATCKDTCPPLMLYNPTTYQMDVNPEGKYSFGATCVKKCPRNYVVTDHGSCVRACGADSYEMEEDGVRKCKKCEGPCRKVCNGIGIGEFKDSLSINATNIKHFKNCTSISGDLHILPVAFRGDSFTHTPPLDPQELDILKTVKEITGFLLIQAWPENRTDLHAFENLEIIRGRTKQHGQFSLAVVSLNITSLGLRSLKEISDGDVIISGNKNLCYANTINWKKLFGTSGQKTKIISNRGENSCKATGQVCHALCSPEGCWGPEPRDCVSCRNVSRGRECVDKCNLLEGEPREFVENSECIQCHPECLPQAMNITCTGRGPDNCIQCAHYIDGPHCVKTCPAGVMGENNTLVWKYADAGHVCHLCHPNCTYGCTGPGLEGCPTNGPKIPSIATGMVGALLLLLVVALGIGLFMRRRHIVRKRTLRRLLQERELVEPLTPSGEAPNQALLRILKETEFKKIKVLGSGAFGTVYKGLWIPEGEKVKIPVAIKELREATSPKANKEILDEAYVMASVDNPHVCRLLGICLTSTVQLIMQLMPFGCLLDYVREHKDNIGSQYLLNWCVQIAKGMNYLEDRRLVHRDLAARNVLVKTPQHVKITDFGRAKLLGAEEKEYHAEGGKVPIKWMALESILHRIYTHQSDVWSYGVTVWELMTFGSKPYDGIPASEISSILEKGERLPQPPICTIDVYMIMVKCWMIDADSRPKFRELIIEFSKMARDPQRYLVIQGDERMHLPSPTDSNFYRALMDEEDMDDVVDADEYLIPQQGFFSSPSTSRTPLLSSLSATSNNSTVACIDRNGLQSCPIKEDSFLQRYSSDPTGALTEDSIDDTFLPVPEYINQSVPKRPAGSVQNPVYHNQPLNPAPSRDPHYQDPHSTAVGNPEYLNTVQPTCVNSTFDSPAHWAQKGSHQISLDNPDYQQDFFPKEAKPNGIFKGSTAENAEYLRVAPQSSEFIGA
T2 sequence (P00533 25-1210 L858R): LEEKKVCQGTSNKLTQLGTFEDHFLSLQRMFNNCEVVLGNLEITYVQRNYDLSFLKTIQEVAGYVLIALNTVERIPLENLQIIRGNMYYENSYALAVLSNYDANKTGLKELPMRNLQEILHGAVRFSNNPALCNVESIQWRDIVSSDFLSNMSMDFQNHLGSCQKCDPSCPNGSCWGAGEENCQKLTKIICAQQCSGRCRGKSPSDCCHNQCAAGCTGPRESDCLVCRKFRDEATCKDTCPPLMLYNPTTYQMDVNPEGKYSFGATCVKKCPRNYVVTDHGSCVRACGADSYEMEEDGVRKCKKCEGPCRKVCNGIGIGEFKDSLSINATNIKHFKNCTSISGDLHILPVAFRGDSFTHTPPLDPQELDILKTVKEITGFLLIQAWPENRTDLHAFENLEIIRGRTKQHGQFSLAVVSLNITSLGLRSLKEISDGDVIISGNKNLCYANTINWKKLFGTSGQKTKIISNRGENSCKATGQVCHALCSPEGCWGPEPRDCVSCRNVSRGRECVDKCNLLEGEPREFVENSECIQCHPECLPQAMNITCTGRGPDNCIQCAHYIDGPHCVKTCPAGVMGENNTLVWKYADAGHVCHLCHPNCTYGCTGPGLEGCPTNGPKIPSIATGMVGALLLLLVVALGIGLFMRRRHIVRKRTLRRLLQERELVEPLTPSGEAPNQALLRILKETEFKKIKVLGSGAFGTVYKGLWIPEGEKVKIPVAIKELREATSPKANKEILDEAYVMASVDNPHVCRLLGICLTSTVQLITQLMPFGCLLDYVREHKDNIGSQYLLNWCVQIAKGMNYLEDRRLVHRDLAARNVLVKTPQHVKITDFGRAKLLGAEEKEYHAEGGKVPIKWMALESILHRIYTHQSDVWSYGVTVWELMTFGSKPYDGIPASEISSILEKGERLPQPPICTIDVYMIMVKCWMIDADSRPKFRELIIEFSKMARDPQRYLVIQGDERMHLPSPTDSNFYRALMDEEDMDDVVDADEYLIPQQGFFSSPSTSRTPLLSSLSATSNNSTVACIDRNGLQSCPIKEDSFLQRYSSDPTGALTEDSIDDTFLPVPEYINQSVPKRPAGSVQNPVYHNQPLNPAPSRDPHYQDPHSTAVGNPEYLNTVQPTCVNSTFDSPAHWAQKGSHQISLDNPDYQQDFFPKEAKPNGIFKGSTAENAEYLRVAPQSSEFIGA
T1 sequence (P00533 with tags, fused parts or gaps DEL746-750/T790M limits assumed): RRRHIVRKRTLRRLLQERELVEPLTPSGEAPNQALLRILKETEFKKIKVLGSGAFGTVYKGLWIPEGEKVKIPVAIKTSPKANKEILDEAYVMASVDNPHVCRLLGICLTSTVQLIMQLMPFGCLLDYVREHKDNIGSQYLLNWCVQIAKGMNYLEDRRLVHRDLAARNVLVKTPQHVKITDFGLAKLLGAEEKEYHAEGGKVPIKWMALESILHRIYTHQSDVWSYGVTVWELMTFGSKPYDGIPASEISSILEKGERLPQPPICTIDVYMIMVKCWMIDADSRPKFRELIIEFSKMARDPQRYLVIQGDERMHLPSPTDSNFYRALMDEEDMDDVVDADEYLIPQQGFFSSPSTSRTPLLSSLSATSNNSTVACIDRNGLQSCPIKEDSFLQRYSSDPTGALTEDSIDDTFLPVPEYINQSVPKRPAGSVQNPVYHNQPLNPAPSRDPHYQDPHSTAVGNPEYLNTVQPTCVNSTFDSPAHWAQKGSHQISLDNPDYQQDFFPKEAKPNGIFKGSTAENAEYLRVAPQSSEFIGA
T4 sequence (P00533 with tags, fused parts or gaps DEL746-750 limits assumed): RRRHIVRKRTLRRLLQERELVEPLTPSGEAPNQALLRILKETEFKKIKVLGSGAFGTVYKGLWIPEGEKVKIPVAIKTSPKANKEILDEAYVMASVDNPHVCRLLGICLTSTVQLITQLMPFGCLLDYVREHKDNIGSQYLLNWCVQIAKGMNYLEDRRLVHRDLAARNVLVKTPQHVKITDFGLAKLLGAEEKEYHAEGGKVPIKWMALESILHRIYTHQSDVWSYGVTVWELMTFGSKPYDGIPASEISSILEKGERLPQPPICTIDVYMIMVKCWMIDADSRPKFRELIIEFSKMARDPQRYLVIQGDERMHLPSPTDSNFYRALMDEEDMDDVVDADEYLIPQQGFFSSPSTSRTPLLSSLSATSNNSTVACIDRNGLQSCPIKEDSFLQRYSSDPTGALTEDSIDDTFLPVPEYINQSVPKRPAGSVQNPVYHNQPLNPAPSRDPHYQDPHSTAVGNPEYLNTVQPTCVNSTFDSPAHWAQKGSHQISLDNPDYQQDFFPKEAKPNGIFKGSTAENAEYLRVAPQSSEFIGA

Row | IC50 (EGFR (d746-750/T790M)) [nM] | IC50 (EGFR (L858R)) [nM] | IC50 (EGFR (T790M/L858R)) [nM] | inhibitory activities for EGFR (L858R), EGFR (d746-750), EGFR (T790M/L858R) and EGFR (d746-750/T790M), in words (EGFR (T790M/L858R)) | GI50 [1] [nM] | IC50 (EGFR (d746-750)) [nM] | GI50 [2] [nM] | GI50 [3] [nM] | IC50 (EGFR (WT)) [nM] | SMILES | growth-inhibitory activities for EGFR (d746-750)-expressing and EGFR (T790M/L858R)-expressing cells, in words [1] | growth-inhibitory activities for EGFR (WT)-expressing cells compared with cells expressing mutant EGFRs, in words [3] | inhibitory activities for EGFR (WT) compared with the mutant EGFR proteins, in words (EGFR (WT))
1 | 0.2 | 0.4 | 0.3 | potent inhibitory activities | 27 | 0.4 | 5 | 590 | 4.3 | C=CC(=O)N[C@H]1CCc2c(-c3cnc4ccccc4c3)c3c(N)ncnc3n2C1 (single isomer, unassigned) [Compound I-2] | potent growth-inhibitory activities | weaker growth-inhibitory activities | lower than those for the above mutant EGFR proteins
2 | 0.6 | 1.3 | 1.3 | potent inhibitory activities | 86 | 1 | 10 | 1800 | 18 | C=CC(=O)N(C)C1CCc2c(-c3cnc4ccccc4c3)c3c(N)ncnc3n2C1 (stereo not drawn) [Compound I-3, N-(4-amino-5-(quinolin-3-yl)-6,7,8,9-tetrahydropyrimido[5,4-b]indolizin-8-yl)-N-methylacrylamide] | potent growth-inhibitory activities | weaker growth-inhibitory activities | lower than those for the above mutant EGFR proteins
